Numbering of substitutions follows the chain as printed. Names and notes keep the numbering of the source. Read-outs that look alike come from different tables or passages of the source.
Key:
Format in all cases: biochemical
QueF = QueF nitrile oxido-reductase assay, continuous UV monitoring of NADPH oxidation (preQ0 to preQ1)
Description: PreQ0 oxido-reductase activity was determined using a number of redox cofactors, and activity was observed only in the presence of NADPH. […] […] Assays were run from 30 seconds to 2 hours.
To confirm that preQ1 was the reduced product as predicted, reaction assays were analyzed by reverse-phase HPLC (Bondclone 10 C-18, 300×3.9 mm) with a mobile phase of 20 mM ammonium actetate (pH 6.0) and methanol. With a flow-rate of 1 mL/min a series of linear gradients were developed from 20 mM ammonium acetate (pH 6.0) (buffer U) to 75% methanol in buffer U (buffer V) in the following manner (beginning time and ending time and linear increase to % V): 0-20.0 min, 0% V; 20.0-30.0 min, 8% V; 30.0-40.0 min, 20% V; 40.0-42.0 min, 100% V; 42.0-50.0 min, 100% V; and 50.0.0-52.0 min, 0% V. PreQ0 and preQ1 were detected with a diode array detector.

[1] = GTP cyclohydrolase activity assays (radiochemical [14C]formic acid release, fluorescence, HPLC); details: three assays, large screen of conditions (cyclohydrolase I, II, III)
From the text: GTP cyclohydrolase activity was investigated using three different assays (radiochemical based release of [^14C]formic acid, fluorescence, or HPLC analysis of reactions) and a large screen of assay conditions (including those for cyclohydrolase I, II, and III activity).

[2] = standard nitrile oxido-reductase assay of B. subtilis QueF mutants; details: Glu98 substitution in SEQ ID NO: 2
Description: Assays were typically carried out at 30° C. in a final volume of 80 μL in a solution of 50 mM HEPES (pH 7.5), 50 mM KCl, 1 mM DTT, 2-150 μM NADPH, 0.2-150 μM preQ0, and 10-1000 nM QueF. Assays were run from 30 seconds to 2 hours.

Molecule: NCC1C=Nc2nc(N)[nH]c(=O)c21 (stereo not shown) [preQ1, 7-aminomethyl-7-deazaguanine]
- preQ0 generated when the reaction was run in reverse (QueF; reverse reaction with preQ1 and NADP+): < 1%

Molecule: N#Cc1c[nH]c2nc(N)[nH]c(=O)c12 [preQ0, 7-cyano-7-deazaguanine]
- Km (QueF; read-out: KM for preQ0): < 1 µM
- kcat (QueF; variable NADPH and constant, saturating preQ0): 0.01 s⁻¹

Molecule: reduced form of nicotinamide adenine dinucleotide phosphate [NADPH]
- Km (QueF; variable NADPH and constant, saturating preQ0, read-out: KM for NADPH): 36 µM

B1: YqcD: E. coli QueF Class II protein, SEQ ID NO: 4 (protein)
chain: MSSYANHQALAGLTLGKSTDYRDTYDASLLQGVPRSLNRDPLGLKADNLPFHGTDIWTLYELSWLNAKGLPQVAVGHVELDYTSVNLIESKSFKLYLNSFNQTRFNNWDEVRQTLERDLSTCAQGKISVALYRLDELEGQPIGHFNGTCIDDQDITIDNYEFTTDYLENATCGEKVVEETLVSHLLKSNCLITHQPDWGSLQIQYRGRQIDREKLLRYLVSFRHHNEFHEQCVERIFNDLLRFCQPEKLSVYARYTRRGGLDINPWRSNSDFVPSTTRLVRQ
- GTP cyclohydrolase activity [1]: no GTP cyclohydrolase activity was detected

B2: E98M: QueF with substitution of Glu98 in SEQ ID NO: 2 to Met (protein)
chain: MTTRKESELEGVTLLGNQGTNYLFEYAPDVLESFPNKHVNRDYFVKFNCPEFTSLCPKTGQPDFATIYISYIPDEKMVESKSLKLYLFSFRNHGDFHMDCMNIIMNDLIELMDPRYIEVWGKFTPRGGISIDPYTNYGKPGTKYEKMAEYRMMNHDLYPETIDNR
- ability to reduce PreQ0 [2]: significantly decreased

B3: YkvM: B. subtilis QueF Class I protein, SEQ ID NO: 2 (protein)
chain: B2 chain with M98E
- GTP cyclohydrolase activity [1]: no GTP cyclohydrolase activity was detected

From US7364882B1, “Enzymatic reduction of a nitrile containing compound to the corresponding amine” (State of Oregon Acting by and Through the State Board of …, priority 2004, dated 2008)
